# Measured values taken from PubChem BioAssay AID250 (DTP/NCI, 2004).
# “And” between values parts separate entries of the source, which are not always exact repeats. Identical values can stand only once. Inconclusive results and toxic doses are left out.
# Test system: BDF1 mice, L1210 leukemia sc, survival T/C
# Test: NCI In Vivo Anticancer Drug Screen. Data for tumor model L1210 Leukemia (subcutaneous) in B6D2F1 (BDF1) mice
# Conditions: higher = longer survival
# Summary of the method: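 Read-out: T/C ratio, i.e. survival or tumor size in treated mice over that in vehicle-treated controls, from mice bearing transplantable tumors.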
# [1] = endpoint: median survival time, dose: 39.0 mg/kg/injection, schedule: Q01DX Z (sc), vehicle: methylcellulose (MC)
# [2] = endpoint: median survival time, dose: 65.0 mg/kg/injection, schedule: Q01DX Z (sc), vehicle: methylcellulose (MC)
# [3] = endpoint: median survival time, dose: 108.0 mg/kg/injection, schedule: Q01DX Z (sc), vehicle: methylcellulose (MC)
# [4] = endpoint: median survival time, dose: 180.0 mg/kg/injection, schedule: Q01DX Z (sc), vehicle: methylcellulose (MC)
# [5] = endpoint: median survival time, dose: 300.0 mg/kg/injection, schedule: Q01DX Z (sc), vehicle: methylcellulose (MC)
# [6] = endpoint: median survival time, dose: 500.0 mg/kg/injection, schedule: Q01DX Z (sc), vehicle: methylcellulose (MC)
smiles,measurement,setting,value
C[C@]12CCC(=O)C=C1CC[C@@H]1[C@@H]2C(=O)C[C@@]2(C)[C@H]1CC[C@]2(O)C(=O)CO,T/C,[1],100 % of control
same,T/C,[2],104 % of control
same,T/C,[3],104 % of control
same,T/C,[4],100 % of control
same,T/C,[5],100 % of control
CO[C@@]12[C@H](COC(N)=O)C3=C(C(=O)C(C)=C(N)C3=O)N1C[C@@H]1N[C@@H]12,T/C,"endpoint: median survival time, dose: 0.1 mg/kg/injection, schedule: Q01DX Z (sc), vehicle: saline",95 % of control
same,T/C,"endpoint: median survival time, dose: 0.17 mg/kg/injection, schedule: Q01DX Z (sc), vehicle: saline",100 % of control
same,T/C,"endpoint: median survival time, dose: 0.28 mg/kg/injection, schedule: Q01DX Z (sc), vehicle: saline",100 % of control
same,T/C,"endpoint: median survival time, dose: 0.47 mg/kg/injection, schedule: Q01DX Z (sc), vehicle: saline",91 % of control
same,T/C,"endpoint: median survival time, dose: 0.79 mg/kg/injection, schedule: Q01DX Z (sc), vehicle: saline",100 % of control
same,T/C,"endpoint: median survival time, dose: 1.0 mg/kg/injection, schedule: Q01DX009 (ip), vehicle: water",110 % of control
same,T/C,"endpoint: median survival time, dose: 1.0 mg/kg/injection, schedule: Q01DX009 (sc), vehicle: water",101 % of control
same,T/C,"endpoint: median survival time, dose: 1.08 mg/kg/injection, schedule: Q01DX Z (sc), vehicle: saline",100 % of control
same,T/C,"endpoint: median survival time, dose: 1.3 mg/kg/injection, schedule: Q01DX Z (sc), vehicle: other",104 % of control
same,T/C,"endpoint: median survival time, dose: 1.3 mg/kg/injection, schedule: Q01DX Z (sc), vehicle: saline",104 % of control
same,T/C,"endpoint: median survival time, dose: 1.31 mg/kg/injection, schedule: Q01DX Z (sc), vehicle: saline",95 % of control
same,T/C,"endpoint: median survival time, dose: 1.8 mg/kg/injection, schedule: Q01DX Z (sc), vehicle: saline",100 % of control
same,T/C,"endpoint: median survival time, dose: 1.8 mg/kg/injection, schedule: Q02DX Z (sc), vehicle: saline",100 % of control
same,T/C,"endpoint: median survival time, dose: 2.0 mg/kg/injection, schedule: Q01DX009 (ip), vehicle: water",110 % of control
same,T/C,"endpoint: median survival time, dose: 2.0 mg/kg/injection, schedule: Q01DX009 (sc), vehicle: water",110 % of control and 118 % of control
same,T/C,"endpoint: median survival time, dose: 2.16 mg/kg/injection, schedule: Q01DX Z (sc), vehicle: other",100 % of control
same,T/C,"endpoint: median survival time, dose: 2.16 mg/kg/injection, schedule: Q01DX Z (sc), vehicle: saline",109 % of control
same,T/C,"endpoint: median survival time, dose: 2.18 mg/kg/injection, schedule: Q01DX Z (sc), vehicle: saline",100 % of control
same,T/C,"endpoint: median survival time, dose: 3.0 mg/kg/injection, schedule: Q01DX Z (sc), vehicle: saline",109 % of control
same,T/C,"endpoint: median survival time, dose: 3.0 mg/kg/injection, schedule: Q02DX Z (sc), vehicle: saline",109 % of control
same,T/C,"endpoint: median survival time, dose: 3.0 mg/kg/injection, schedule: Q## X Z (sc), vehicle: saline",104 % of control
same,T/C,"endpoint: median survival time, dose: 3.6 mg/kg/injection, schedule: Q01DX Z (sc), vehicle: other",109 % of control
same,T/C,"endpoint: median survival time, dose: 3.6 mg/kg/injection, schedule: Q01DX Z (sc), vehicle: saline",113 % of control
same,T/C,"endpoint: median survival time, dose: 4.0 mg/kg/injection, schedule: Q01DX009 (ip), vehicle: water",92 % of control
same,T/C,"endpoint: median survival time, dose: 4.0 mg/kg/injection, schedule: Q01DX009 (sc), vehicle: water",98 % of control and 121 % of control
same,T/C,"endpoint: median survival time, dose: 5.0 mg/kg/injection, schedule: Q01DX001 (sc), vehicle: saline",109 % of control
same,T/C,"endpoint: median survival time, dose: 5.0 mg/kg/injection, schedule: Q02DX Z (sc), vehicle: saline",118 % of control
same,T/C,"endpoint: median survival time, dose: 5.0 mg/kg/injection, schedule: Q## X Z (sc), vehicle: saline",109 % of control
same,T/C,"endpoint: median survival time, dose: 6.0 mg/kg/injection, schedule: Q01DX Z (sc), vehicle: other",113 % of control
same,T/C,"endpoint: median survival time, dose: 6.0 mg/kg/injection, schedule: Q01DX Z (sc), vehicle: saline",118 % of control
same,T/C,"endpoint: median survival time, dose: 6.06 mg/kg/injection, schedule: Q01DX Z (sc), vehicle: saline",116 % of control
same,T/C,"endpoint: median survival time, dose: 8.0 mg/kg/injection, schedule: Q01DX009 (sc), vehicle: water",108 % of control
same,T/C,"endpoint: median survival time, dose: 8.4 mg/kg/injection, schedule: Q01DX001 (sc), vehicle: saline",113 % of control
same,T/C,"endpoint: median survival time, dose: 8.4 mg/kg/injection, schedule: Q01DX Z (sc), vehicle: saline",118 % of control
same,T/C,"endpoint: median survival time, dose: 8.4 mg/kg/injection, schedule: Q## X Z (sc), vehicle: saline",122 % of control
same,T/C,"endpoint: median survival time, dose: 10.0 mg/kg/injection, schedule: Q01DX Z (sc), vehicle: other",109 % of control
same,T/C,"endpoint: median survival time, dose: 10.0 mg/kg/injection, schedule: Q01DX Z (sc), vehicle: saline",100 % of control
same,T/C,"endpoint: median survival time, dose: 14.0 mg/kg/injection, schedule: Q01DX Z (sc), vehicle: saline",109 % of control
same,T/C,"endpoint: median survival time, dose: 14.0 mg/kg/injection, schedule: Q02DX Z (sc), vehicle: saline",118 % of control
same,T/C,"endpoint: median survival time, dose: 16.0 mg/kg/injection, schedule: Q01DX009 (sc), vehicle: water",97 % of control
same,T/C,"endpoint: median survival time, dose: 23.0 mg/kg/injection, schedule: Q01DX001 (sc), vehicle: saline",118 % of control
same,T/C,"endpoint: median survival time, dose: 23.0 mg/kg/injection, schedule: Q01DX Z (sc), vehicle: saline",109 % of control
same,T/C,"endpoint: median survival time, dose: 23.0 mg/kg/injection, schedule: Q02DX Z (sc), vehicle: saline",118 % of control
same,T/C,"endpoint: median survival time, dose: 23.0 mg/kg/injection, schedule: Q## X Z (sc), vehicle: saline",118 % of control
same,T/C,"endpoint: median survival time, dose: 39.0 mg/kg/injection, schedule: Q01DX001 (sc), vehicle: saline",118 % of control
same,T/C,"endpoint: median survival time, dose: 39.0 mg/kg/injection, schedule: Q02DX Z (sc), vehicle: saline",122 % of control
same,T/C,"endpoint: median survival time, dose: 39.0 mg/kg/injection, schedule: Q## X Z (sc), vehicle: saline",118 % of control
same,T/C,"endpoint: median survival time, dose: 65.0 mg/kg/injection, schedule: Q01DX001 (sc), vehicle: saline",109 % of control
CS(=O)(=O)Nc1ccc(Nc2c3ccccc3nc3cc(N)ccc23)cc1,T/C,"endpoint: mean survival time, dose: 1.0 mg/kg/injection, schedule: Q01DX009 (ip), vehicle: saline",103 % of control
same,T/C,"endpoint: mean survival time, dose: 2.0 mg/kg/injection, schedule: Q01DX009 (ip), vehicle: saline",99 % of control
CCOC1=C(N2CC2)C(=O)C(OCC)=C(N2CC2)C1=O,T/C,"endpoint: median survival time, dose: 3.0 mg/kg/injection, schedule: Q01DX Z (sc), vehicle: carboxymethylcellulose (CMC)",109 % of control
same,T/C,"endpoint: median survival time, dose: 14.0 mg/kg/injection, schedule: Q01DX Z (sc), vehicle: carboxymethylcellulose (CMC)",122 % of control
same,T/C,"endpoint: median survival time, dose: 23.0 mg/kg/injection, schedule: Q01DX Z (sc), vehicle: carboxymethylcellulose (CMC)",109 % of control
CN(N=O)C(=O)N[C@@H](C=O)[C@@H](O)[C@H](O)[C@H](O)CO,T/C,"endpoint: median survival time, dose: 25.0 mg/kg/injection, schedule: Q01DX009 (sc), vehicle: other",123 % of control
CCN(CC)CCNc1ccc(C)c2sc3ccccc3c(=O)c12 (tested in a mixture with another compound),T/C,[1],100 % of control
same,T/C,[2],100 % of control
same,T/C,[3],100 % of control
same,T/C,[4],100 % of control
same,T/C,"endpoint: median survival time, dose: 200.0 mg/kg/injection, schedule: Q01DX Z (sc), vehicle: methylcellulose (MC)",111 % of control
CC(C)Sc1nc(N)nc2nc[nH]c12,T/C,"endpoint: median survival time, dose: 23.0 mg/kg/injection, schedule: Q01DX Z (sc), vehicle: methylcellulose (MC)",100 % of control
same,T/C,[1],100 % of control
same,T/C,[2],111 % of control
same,T/C,[3],111 % of control
same,T/C,[4],111 % of control
same,T/C,[5],105 % of control
same,T/C,[6],111 % of control
CCNC(=O)c1cccnc1,T/C,"endpoint: median survival time, dose: 8.4 mg/kg/injection, schedule: Q01DX Z (sc), vehicle: water",100 % of control
same,T/C,"endpoint: median survival time, dose: 77.8 mg/kg/injection, schedule: Q01DX Z (sc), vehicle: water",100 % of control
same,T/C,"endpoint: median survival time, dose: 130.0 mg/kg/injection, schedule: Q01DX Z (sc), vehicle: water",95 % of control
same,T/C,"endpoint: median survival time, dose: 216.0 mg/kg/injection, schedule: Q01DX Z (sc), vehicle: water",100 % of control
same,T/C,"endpoint: median survival time, dose: 360.0 mg/kg/injection, schedule: Q01DX Z (sc), vehicle: water",100 % of control
same,T/C,"endpoint: median survival time, dose: 600.0 mg/kg/injection, schedule: Q01DX Z (sc), vehicle: water",100 % of control
same,T/C,"endpoint: median survival time, dose: 1000.0 mg/kg/injection, schedule: Q01DX Z (sc), vehicle: water",109 % of control
CCCNc1ncnc2[nH]ncc12,T/C,"endpoint: median survival time, dose: 64.8 mg/kg/injection, schedule: Q01DX Z (sc), vehicle: methylcellulose (MC)",120 % of control
same,T/C,[3],110 % of control
same,T/C,[4],100 % of control
same,T/C,[5],100 % of control
same,T/C,[6],100 % of control
COc1cc([C@@H]2c3cc4c(cc3[C@@H](OC3OC5COC(C)OC5C(O)C3O)[C@H]3COC(=O)[C@H]23)OCO4)cc(OC)c1O (stereo partly specified),T/C,"endpoint: median survival time, dose: 2.0 mg/kg/injection, schedule: Q01DX009 (ip), vehicle: Klucel (hydroxypropylcellulose) (HPC)",120 % of control
same,T/C,"endpoint: median survival time, dose: 8.0 mg/kg/injection, schedule: Q01DX009 (ip), vehicle: Klucel (hydroxypropylcellulose) (HPC)",160 % of control
same,T/C,"endpoint: median survival time, dose: 16.0 mg/kg/injection, schedule: Q01DX009 (ip), vehicle: Klucel (hydroxypropylcellulose) (HPC)",105 % of control
